Here are results for 22 molecules from patent US20210387978A1, “CYCLOBUTYL DIHYDROQUINOLINE SULFONAMIDE COMPOUNDS” (AMGEN INC., priority 2020, published 2021).

SMILES strings stand for the structures.

One may read the IC50 as the midpoint of a concentration-inhibition curve.

In this test the target is T1, Human Nav1.7 (Homo sapiens, UniProt Q15858).
T1 construct: expressed in transfected cells; host or cells: Spiking HEK cells (without Kir2.1 transfection)
T1 sequence (Q15858 whole entry): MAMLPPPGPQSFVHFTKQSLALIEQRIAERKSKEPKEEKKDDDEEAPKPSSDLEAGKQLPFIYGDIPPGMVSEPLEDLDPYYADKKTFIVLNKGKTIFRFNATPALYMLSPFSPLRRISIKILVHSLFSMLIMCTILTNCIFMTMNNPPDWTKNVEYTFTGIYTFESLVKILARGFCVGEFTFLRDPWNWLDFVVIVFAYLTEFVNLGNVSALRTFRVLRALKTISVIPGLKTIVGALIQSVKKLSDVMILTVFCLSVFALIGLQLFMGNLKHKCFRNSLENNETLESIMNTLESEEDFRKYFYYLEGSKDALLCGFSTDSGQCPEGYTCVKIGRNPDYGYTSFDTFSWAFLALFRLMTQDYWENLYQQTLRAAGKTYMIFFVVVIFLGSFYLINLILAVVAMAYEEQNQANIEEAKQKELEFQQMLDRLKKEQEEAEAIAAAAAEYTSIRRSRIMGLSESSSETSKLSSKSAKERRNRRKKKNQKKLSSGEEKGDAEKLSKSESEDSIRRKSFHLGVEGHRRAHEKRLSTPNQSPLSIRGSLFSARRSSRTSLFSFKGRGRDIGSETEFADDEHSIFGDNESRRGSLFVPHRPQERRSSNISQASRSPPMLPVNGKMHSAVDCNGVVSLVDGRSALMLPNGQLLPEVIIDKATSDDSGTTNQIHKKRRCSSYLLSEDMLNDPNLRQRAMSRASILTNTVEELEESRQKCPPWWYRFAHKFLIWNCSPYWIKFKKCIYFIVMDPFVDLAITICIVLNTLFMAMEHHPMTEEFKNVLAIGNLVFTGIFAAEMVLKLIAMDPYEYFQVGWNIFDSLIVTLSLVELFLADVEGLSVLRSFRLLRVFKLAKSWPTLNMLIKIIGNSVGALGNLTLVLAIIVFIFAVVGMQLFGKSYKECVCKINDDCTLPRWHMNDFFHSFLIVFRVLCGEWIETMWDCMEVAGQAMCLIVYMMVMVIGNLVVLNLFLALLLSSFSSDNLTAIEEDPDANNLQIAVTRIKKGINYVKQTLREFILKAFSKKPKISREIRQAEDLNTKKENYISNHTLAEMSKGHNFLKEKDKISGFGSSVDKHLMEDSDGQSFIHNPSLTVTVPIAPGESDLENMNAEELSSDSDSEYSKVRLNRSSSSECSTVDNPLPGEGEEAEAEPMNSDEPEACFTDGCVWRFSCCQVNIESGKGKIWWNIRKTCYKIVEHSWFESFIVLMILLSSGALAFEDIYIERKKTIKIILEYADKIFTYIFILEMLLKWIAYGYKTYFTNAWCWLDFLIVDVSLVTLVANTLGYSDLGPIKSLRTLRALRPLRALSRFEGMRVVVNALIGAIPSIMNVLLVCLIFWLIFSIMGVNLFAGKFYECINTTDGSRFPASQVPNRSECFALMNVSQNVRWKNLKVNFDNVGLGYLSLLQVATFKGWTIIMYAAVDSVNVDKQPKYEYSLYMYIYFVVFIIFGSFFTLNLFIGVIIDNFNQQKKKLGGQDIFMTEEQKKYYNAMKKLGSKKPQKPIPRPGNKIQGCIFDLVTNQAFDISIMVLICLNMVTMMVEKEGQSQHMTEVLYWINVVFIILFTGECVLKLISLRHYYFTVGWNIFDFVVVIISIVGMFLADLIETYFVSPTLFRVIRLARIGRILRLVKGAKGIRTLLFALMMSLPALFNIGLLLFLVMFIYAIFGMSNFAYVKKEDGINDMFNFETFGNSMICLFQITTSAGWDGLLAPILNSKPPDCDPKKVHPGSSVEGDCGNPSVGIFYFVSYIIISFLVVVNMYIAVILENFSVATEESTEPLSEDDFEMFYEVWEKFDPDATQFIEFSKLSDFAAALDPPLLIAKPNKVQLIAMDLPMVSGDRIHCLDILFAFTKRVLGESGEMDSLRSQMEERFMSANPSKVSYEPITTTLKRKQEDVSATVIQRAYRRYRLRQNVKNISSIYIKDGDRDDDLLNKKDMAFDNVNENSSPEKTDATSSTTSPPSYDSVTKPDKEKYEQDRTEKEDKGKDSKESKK
In words: IonWorks Barracuda (IWB) automated patch clamp assay. Type of test: cell-based. To be noted: human Nav1.7 currents, HEK cells, population patch-clamp, state- and use-dependent voltage protocol; read-out: hNaV1.7 IWB-U IC50. How it is done:
Ionaworks Barracuda […] Automated Patch Clamp Assay (Same Protocol for Both Human and Mouse)
Human Nav1.7 currents were recorded in population patch-clamp mode with the IWB automated electrophysiology system (Molecular Devices, LLC, Sunnyvale, Calif.). Spiking HEK cells (without Kir2.1 transfection) were cultured and prepared for recordings as previously described for IonWorks Quattro testing^1. The external solution consisted of the following (in mM): NaCl 140, KCl 5, CaCl2 2, MgCl2 1, HEPES 10, and glucose 11, pH 7.4, with N-methyl-D-glucamine at 320 mOsmol. […] From a holding potential of −110 mV, currents were elicited by a train of 26 depolarizations of 150 ms duration to −20 mV at a frequency of 5 Hz. Cells were then clamped to −20 mV for a period of 4 minutes in the presence of a single concentration of test compound. Following this compound incubation period, cells were clamped to −110 mV for three seconds to recover unbound channels and put through the same 26 pulse voltage protocol as above. Peak inward current during the 26th pulse to −20 mV in the presence of compound was divided by the peak inward current evoked by the 26th pulse to −20 mV in the absence of compound to determine percent inhibition. Concentration-response curves of percent inhibition as a function of concentration were generated to calculate IC50 values as described in Kornecook, T. J.; Yin, R.; Altmann, S.; et al. Pharmacologic Characterization of AMG8379, a Potent and Selective Small Molecule Sulfonamide Antagonist of the Voltage-Gated Sodium Channel NaV1. 7.
The potency of the compounds of the present invention were evaluated on human Nav1.7 channels using the above described IonWorks Barracuda automated electrophysiology platform that evaluates the ability of compounds to block sodium conductance through Nav1.7 channels. A voltage-protocol that prosecutes both state-dependent as well as use-dependent inhibition was used as these modes of action are thought to be more relevant for the native state of Nav1.7 channels in pain sensing neurons in vivo.
(Patch clamp records ionic current or voltage across a cell membrane.)
As for `COc1cc([C@H]2C[C@H](C(F)(F)F)C2)c(Cl)cc1-n1c(=O)ccc2cc(S(=O)(=O)Nc3ncco3)ccc21` (atropisomer, axis not shown; (P)) [Example 49, trans (P)-1-(5-chloro-2-methoxy-4-((1R,3R)-3-(trifluoromethyl)cyclobutyl)phenyl)-N-(oxazol-2-yl)-2-oxo-1,2-dihydroquinoline-6-sulfonamide], the IC50 amounted to 10 nM. For the molecule `COc1cc(C23CC(C(F)(F)F)(C2)C3)c(F)cc1-n1c(=O)ccc2cc(S(=O)(=O)Nc3ncccn3)ccc21` (atropisomer, axis not shown; (P)) [Example 47, (P)-1-(5-fluoro-2-methoxy-4-(3-(trifluoromethyl)bicyclo[1.1.1]pentan-1-yl)phenyl)-2-oxo-N-(pyrimidin-2-yl)-1,2-dihydroquinoline-6-sulfonamide], the IC50 was 8 nM. To `COc1cc(C2CCC2)c(C)cc1-n1c(=O)ccc2cc(S(=O)(=O)Nc3ccon3)ccc21` (atropisomer, axis not shown; (P)) [Example 22, (P)-1-(4-cyclobutyl-2-methoxy-5-methylphenyl)-N-(isoxazol-3-yl)-2-oxo-1,2-dihydroquinoline-6-sulfonamide] belongs 50 nM. As to `COc1cc(C2CCC2)c(C)cc1-n1c(=O)ccc2cc(S(=O)(=O)Nc3cccnn3)ccc21` (atropisomer, axis not shown; (P)) [Example 30, (P)-1-(4-cyclobutyl-2-methoxy-5-methylphenyl)-2-oxo-N-(pyridazin-3-yl)-1,2-dihydroquinoline-6-sulfonamide], the IC50 came to 137 nM. For `COc1cc(C2CCC2)c(F)cc1-n1c(=O)ccc2cc(S(=O)(=O)Nc3ncco3)ccc21` (atropisomer, axis not shown; (P)) [Example 24, (P)-1-(4-cyclobutyl-5-fluoro-2-methoxyphenyl)-N-(oxazol-2-yl)-2-oxo-1,2-dihydroquinoline-6-sulfonamide], the IC50 was 13 nM.

Regarding `COc1cc(C2CC(F)(F)C2)c(F)cc1-n1c(=O)ccc2cc(S(=O)(=O)Nc3ccon3)ccc21` (atropisomer, axis not shown; (P)) [Example 4, (P)-1-(4-(3,3-difluorocyclobutyl)-5-fluoro-2-methoxyphenyl)-N-(isoxazol-3-yl)-2-oxo-1,2-dihydroquinoline-6-sulfonamide], the IC50 worked out at 15 nM.

Regarding `COc1cc(C2CCC2)c(Cl)cc1-n1c(=O)ccc2cc(S(=O)(=O)Nc3ccon3)ccc21` (atropisomer, axis not shown; (P)) [Example 21, (P)-1-(5-chloro-4-cyclobutyl-2-methoxyphenyl)-N-(isoxazol-3-yl)-2-oxo-1,2-dihydroquinoline-6-sulfonamide], the IC50 was found to be 12 nM.

Regarding `COc1cc(C2CCC2)c(C)cc1-n1c(=O)ccc2cc(S(=O)(=O)Nc3ncccn3)ccc21` (atropisomer, axis not shown; (P)) [Example 27, (P)-1-(4-Cyclobutyl-2-Methoxy-5-Methylphenyl)-2-Oxo-N-(Pyrimidin-2-Yl)-1,2-Dihydro Quinoline-6-Sulfonamide], the IC50 came to 104 nM.

With `COc1cc(C2CC(F)(C(F)(F)F)C2)c(F)cc1-n1c(=O)ccc2cc(S(=O)(=O)Nc3ccon3)ccc21` (atropisomer, axis not shown; (P)) [Example 5, (P)-1-(5-fluoro-4-(3-fluoro-3-(trifluoromethyl)cyclobutyl)-2-methoxyphenyl)-N-(isoxazol-3-yl)-2-oxo-1,2-dihydroquinoline-6-sulfonamide], the IC50 was 2 nM. The result for `COc1cc([C@H]2C[C@H](C(F)(F)F)C2)ccc1-n1c(=O)ccc2cc(S(=O)(=O)Nc3cccnn3)ccc21` (atropisomer, axis not shown; (P)) [Example 38, trans-(P)-1-(2-methoxy-4-(3-(trifluoromethyl)cyclobutyl)phenyl)-2-oxo-N-(pyridazin-3-yl)-1,2-dihydroquinoline-6-sulfonamide] reads 21 nM; that for `COc1cc(C2CC(F)(F)C2)c(F)cc1-n1c(=O)ccc2cc(S(=O)(=O)Nc3ccon3)c(F)cc21` (atropisomer, axis not shown; (P)) [Example 41, (P)-1-(4-(3,3-difluorocyclobutyl)-5-fluoro-2-methoxyphenyl)-7-fluoro-N-(isoxazol-3-yl)-2-oxo-1,2-dihydroquinoline-6-sulfonamide], 11 nM. With `COc1cc([C@H]2C[C@@](F)(C(F)(F)F)C2)c(F)cc1-n1c(=O)ccc2cc(S(=O)(=O)Nc3ccon3)ccc21` (atropisomer, axis not shown; (P)) [Example 8, trans-(P)-1-(5-fluoro-4-(3-fluoro-3-(trifluoromethyl)cyclobutyl)-2-methoxyphenyl)-N-(isoxazol-3-yl)-2-oxo-1,2-dihydroquinoline-6-sulfonamide], the IC50 was 5 nM.

`COc1cc(C2CCC2)c(F)cc1-n1c(=O)ccc2cc(S(=O)(=O)Nc3ccon3)ccc21` (atropisomer, axis not shown; (P)) [Example 14, (P)-1-(4-cyclobutyl-5-fluoro-2-methoxyphenyl)-N-(isoxazol-3-yl)-2-oxo-1,2-dihydroquinoline-6-sulfonamide]: the IC50 was 16 nM.

Consider `COc1cc(C2CCC2)ccc1-n1c(=O)ccc2cc(S(=O)(=O)Nc3ncccn3)ccc21` (atropisomer, axis not shown; (P)) [Example 26, (P)-1-(4-cyclobutyl-2-methoxyphenyl)-2-oxo-N-(pyrimidin-2-yl)-1,2-dihydroquinoline-6-sulfonamide], for which the IC50 is 80 nM. On to `COc1cc(C2CC(F)(F)C2)c(Cl)cc1-n1c(=O)ccc2cc(S(=O)(=O)Nc3ccon3)ccc21` (atropisomer, axis not shown; (P)) [Example 48, (P)-1-(5-chloro-4-(3,3-difluorocyclobutyl)-2-methoxyphenyl)-N-(isoxazol-3-yl)-2-oxo-1,2-dihydroquinoline-6-sulfonamide], for which the IC50 was determined as 10 nM. To `COc1cc([C@H]2C[C@@H](C(F)(F)F)C2)c(Cl)cc1-n1c(=O)ccc2cc(S(=O)(=O)Nc3ncccn3)ccc21` (atropisomer, axis not shown; (P)) [Example 16, cis-(P)-1-(5-chloro-2-methoxy-4-(3-(trifluoromethyl)cyclobutyl)phenyl)-2-oxo-N-(pyrimidin-2-yl)-1,2-dihydroquinoline-6-sulfonamide] belongs 18 nM; to `COc1cc([C@H]2C[C@H](C(F)(F)F)C2)c(C)cc1-n1c(=O)ccc2cc(S(=O)(=O)Nc3ccon3)ccc21` (atropisomer, axis not shown; (P)) [Example 20, trans-(P)—N-(isoxazol-3-yl)-1-(2-methoxy-5-methyl-4-(3-(trifluoromethyl)cyclobutyl)phenyl)-2-oxo-1,2-dihydroquinoline-6-sulfonamide], 12 nM; to `COc1cc([C@H]2C[C@H](C(F)(F)F)C2)c(Cl)cc1-n1c(=O)ccc2cc(S(=O)(=O)Nc3cccnn3)ccc21` (atropisomer, axis not shown; (P)) [Example 19, trans-(P)-1-(5-chloro-2-methoxy-4-(3-(trifluoromethyl)cyclobutyl)phenyl)-2-oxo-N-(pyridazin-3-yl)-1,2-dihydroquinoline-6-sulfonamide], 15 nM. Regarding `COc1cc(C2CCC2)ccc1-n1c(=O)ccc2cc(S(=O)(=O)Nc3ncco3)ccc21` (atropisomer, axis not shown; (P)) [Example 29, (P)-1-(4-cyclobutyl-2-methoxyphenyl)-N-(oxazol-2-yl)-2-oxo-1,2-dihydroquinoline-6-sulfonamide], the half-inhibitory concentration (IC50) was 37 nM. `COc1cc(C2CCC2)c(Cl)cc1-n1c(=O)ccc2cc(S(=O)(=O)Nc3ncccn3)ccc21` (atropisomer, axis not shown; (P)) [Example 18, (P)-1-(5-chloro-4-cyclobutyl-2-methoxyphenyl)-2-oxo-N-(pyrimidin-2-yl)-1,2-dihydroquinoline-6-sulfonamide]: the IC50 came out at 22 nM. Turning to `COc1cc([C@H]2C[C@H](C(F)(F)F)C2)c(Cl)cc1-n1c(=O)ccc2cc(S(=O)(=O)Nc3ncccn3)ccc21` (atropisomer, axis not shown; (P)) [Example 17, trans-(P)-1-(5-chloro-2-methoxy-4-(3-(trifluoromethyl)cyclobutyl)phenyl)-2-oxo-N-(pyrimidin-2-yl)-1,2-dihydroquinoline-6-sulfonamide], the IC50 turned out to be 15 nM. For the molecule `COc1cc([C@H]2C[C@](F)(C(F)(F)F)C2)c(Cl)cc1-n1c(=O)ccc2cc(S(=O)(=O)Nc3ccon3)ccc21` (atropisomer, axis not shown; (P)) [Example 10, cis-(P)-1-(5-chloro-4-(3-fluoro-3-(trifluoromethyl)cyclobutyl)-2-methoxyphenyl)-N-(isoxazol-3-yl)-2-oxo-1,2-dihydroquinoline-6-sulfonamide], the IC50 was determined as 8 nM.
